Several values for one entry are separate records, joined by “and”; a condition that tells them apart may be missing. Equal entries are not always repeated.
Columns and labels:
Assay in all cases: Competitive isoTOP-ABPP, cell lysates
Format in all cases: binding
GNB2L1 C182 (P63244) = GNB2L1 C182 (P63244) (Homo sapiens, UniProt P63244); conditions: for isoTOP-ABPP reactivity ratio, P63244_C182: 500 μm, in-vitro_ramos_231
IDH1 C269 (O75874) = IDH1 C269 (O75874) (Homo sapiens, UniProt O75874); conditions: for isoTOP-ABPP reactivity ratio, O75874_C269: 500 μm
UBE2S C118 (Q16763) = biological target: T1, UBE2S C118 (Q16763) (Homo sapiens, UniProt Q16763); conditions: for isoTOP-ABPP reactivity ratio, Q16763_C118: 500 μm
T1 sequence (Q16763 1-222): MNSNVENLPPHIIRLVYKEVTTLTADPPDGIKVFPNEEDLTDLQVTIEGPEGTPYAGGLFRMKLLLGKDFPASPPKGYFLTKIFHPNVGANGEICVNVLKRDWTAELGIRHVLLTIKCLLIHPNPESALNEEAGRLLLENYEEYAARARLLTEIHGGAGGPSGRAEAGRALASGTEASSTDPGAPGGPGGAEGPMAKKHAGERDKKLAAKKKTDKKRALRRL

USP22 C171 (Q9UPT9) = biological target: T2, USP22 C171 (Q9UPT9) (Homo sapiens, UniProt Q9UPT9); conditions: for isoTOP-ABPP reactivity ratio, Q9UPT9_C171: 500 μm
T2 sequence (Q9UPT9 1-525): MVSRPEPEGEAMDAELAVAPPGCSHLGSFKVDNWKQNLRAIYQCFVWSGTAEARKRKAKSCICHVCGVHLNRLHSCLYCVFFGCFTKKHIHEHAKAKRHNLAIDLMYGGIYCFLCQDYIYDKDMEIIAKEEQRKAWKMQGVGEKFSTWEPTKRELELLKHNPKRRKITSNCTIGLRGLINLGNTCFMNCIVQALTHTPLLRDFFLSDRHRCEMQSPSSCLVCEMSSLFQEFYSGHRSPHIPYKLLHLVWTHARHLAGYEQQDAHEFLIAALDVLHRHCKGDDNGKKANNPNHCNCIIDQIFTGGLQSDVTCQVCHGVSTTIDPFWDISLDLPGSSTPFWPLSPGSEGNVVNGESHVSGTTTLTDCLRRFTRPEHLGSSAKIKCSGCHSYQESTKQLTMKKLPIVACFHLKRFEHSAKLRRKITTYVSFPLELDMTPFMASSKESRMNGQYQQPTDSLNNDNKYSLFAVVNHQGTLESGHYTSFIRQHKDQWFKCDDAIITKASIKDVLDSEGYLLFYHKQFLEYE

AIP C122 (O00170) = biological target: T3, AIP C122 (O00170) (Homo sapiens, UniProt O00170); conditions: for isoTOP-ABPP reactivity ratio, O00170_C122: 500 μm
T3 sequence (O00170 1-330): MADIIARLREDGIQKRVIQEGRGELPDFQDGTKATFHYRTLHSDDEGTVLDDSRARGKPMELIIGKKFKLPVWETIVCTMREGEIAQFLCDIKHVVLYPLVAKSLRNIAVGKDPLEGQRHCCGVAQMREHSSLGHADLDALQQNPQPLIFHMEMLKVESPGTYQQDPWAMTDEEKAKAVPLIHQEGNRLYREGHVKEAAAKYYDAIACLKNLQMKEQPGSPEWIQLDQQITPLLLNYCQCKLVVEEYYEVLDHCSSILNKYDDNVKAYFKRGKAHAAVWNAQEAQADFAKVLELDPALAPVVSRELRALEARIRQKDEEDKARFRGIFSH

SAMHD1 C522 (Q9Y3Z3) = SAMHD1 C522 (Q9Y3Z3) (Homo sapiens, UniProt Q9Y3Z3); conditions: for isoTOP-ABPP reactivity ratio, Q9Y3Z3_C522: 500 μm
GSTP1 C48 (P09211) = GSTP1 C48 (P09211) (Homo sapiens, UniProt P09211); conditions: for isoTOP-ABPP reactivity ratio, P09211_C48: 500 μm
UCHL3 C95 (P15374) = biological target: T4, UCHL3 C95 (P15374) (Homo sapiens, UniProt P15374); conditions: for isoTOP-ABPP reactivity ratio, P15374_C95: 500 μm
T4 sequence (P15374 1-230): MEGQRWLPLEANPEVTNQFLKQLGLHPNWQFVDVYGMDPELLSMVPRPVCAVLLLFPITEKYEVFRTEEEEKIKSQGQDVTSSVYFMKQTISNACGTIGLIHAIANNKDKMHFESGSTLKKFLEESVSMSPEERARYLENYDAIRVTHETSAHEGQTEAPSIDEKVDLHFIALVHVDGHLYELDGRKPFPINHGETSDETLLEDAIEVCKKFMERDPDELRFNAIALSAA

ZNF217 C286 (O75362) = ZNF217 C286 (O75362) (Homo sapiens, UniProt O75362); conditions: for isoTOP-ABPP reactivity ratio, O75362_C286: 500 μm
Chain of ZNF217 C286 (O75362) (O75362 whole entry): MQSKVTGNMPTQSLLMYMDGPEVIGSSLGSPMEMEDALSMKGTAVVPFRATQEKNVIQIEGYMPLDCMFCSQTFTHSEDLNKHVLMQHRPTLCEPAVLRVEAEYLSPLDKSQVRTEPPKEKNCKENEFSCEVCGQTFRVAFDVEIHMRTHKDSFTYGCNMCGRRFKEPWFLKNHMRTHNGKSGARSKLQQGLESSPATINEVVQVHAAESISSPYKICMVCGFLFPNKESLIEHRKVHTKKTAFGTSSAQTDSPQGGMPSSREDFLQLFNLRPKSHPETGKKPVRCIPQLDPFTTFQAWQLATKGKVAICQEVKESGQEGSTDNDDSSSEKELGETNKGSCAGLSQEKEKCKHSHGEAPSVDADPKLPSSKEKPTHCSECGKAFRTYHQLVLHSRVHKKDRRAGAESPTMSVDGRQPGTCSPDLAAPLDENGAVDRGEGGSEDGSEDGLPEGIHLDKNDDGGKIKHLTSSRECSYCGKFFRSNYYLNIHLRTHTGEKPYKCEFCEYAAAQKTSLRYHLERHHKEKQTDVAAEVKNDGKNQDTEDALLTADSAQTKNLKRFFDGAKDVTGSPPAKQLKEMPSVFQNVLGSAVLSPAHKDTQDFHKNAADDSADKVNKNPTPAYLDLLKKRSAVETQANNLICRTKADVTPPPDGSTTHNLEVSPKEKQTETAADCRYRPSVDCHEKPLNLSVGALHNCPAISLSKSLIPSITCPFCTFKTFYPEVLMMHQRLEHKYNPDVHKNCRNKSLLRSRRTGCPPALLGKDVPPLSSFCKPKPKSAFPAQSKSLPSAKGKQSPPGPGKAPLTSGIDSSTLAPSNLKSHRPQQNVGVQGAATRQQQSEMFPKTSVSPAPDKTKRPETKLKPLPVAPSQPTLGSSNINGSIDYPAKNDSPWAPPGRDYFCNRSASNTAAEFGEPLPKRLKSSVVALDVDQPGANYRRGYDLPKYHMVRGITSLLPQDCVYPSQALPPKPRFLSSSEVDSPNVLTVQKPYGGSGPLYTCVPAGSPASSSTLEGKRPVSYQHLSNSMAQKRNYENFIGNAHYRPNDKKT

Chain of SAMHD1 C522 (Q9Y3Z3) (Q9Y3Z3 whole entry): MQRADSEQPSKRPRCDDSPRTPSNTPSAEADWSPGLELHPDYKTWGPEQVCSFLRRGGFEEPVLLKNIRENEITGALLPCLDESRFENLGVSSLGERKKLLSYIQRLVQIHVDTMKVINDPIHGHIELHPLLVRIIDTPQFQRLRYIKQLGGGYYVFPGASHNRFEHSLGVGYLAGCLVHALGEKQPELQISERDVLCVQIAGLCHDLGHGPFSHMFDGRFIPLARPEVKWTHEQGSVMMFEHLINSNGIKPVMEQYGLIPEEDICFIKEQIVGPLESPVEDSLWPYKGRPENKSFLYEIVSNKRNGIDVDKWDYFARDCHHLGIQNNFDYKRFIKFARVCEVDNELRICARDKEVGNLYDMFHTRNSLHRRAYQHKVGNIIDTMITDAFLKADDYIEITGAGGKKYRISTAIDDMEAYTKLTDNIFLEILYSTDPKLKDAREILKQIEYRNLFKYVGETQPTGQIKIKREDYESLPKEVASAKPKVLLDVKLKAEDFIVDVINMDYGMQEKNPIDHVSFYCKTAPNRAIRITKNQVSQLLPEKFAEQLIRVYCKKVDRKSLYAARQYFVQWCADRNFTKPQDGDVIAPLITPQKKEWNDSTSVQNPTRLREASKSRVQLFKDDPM
Chain of IDH1 C269 (O75874) (O75874 whole entry): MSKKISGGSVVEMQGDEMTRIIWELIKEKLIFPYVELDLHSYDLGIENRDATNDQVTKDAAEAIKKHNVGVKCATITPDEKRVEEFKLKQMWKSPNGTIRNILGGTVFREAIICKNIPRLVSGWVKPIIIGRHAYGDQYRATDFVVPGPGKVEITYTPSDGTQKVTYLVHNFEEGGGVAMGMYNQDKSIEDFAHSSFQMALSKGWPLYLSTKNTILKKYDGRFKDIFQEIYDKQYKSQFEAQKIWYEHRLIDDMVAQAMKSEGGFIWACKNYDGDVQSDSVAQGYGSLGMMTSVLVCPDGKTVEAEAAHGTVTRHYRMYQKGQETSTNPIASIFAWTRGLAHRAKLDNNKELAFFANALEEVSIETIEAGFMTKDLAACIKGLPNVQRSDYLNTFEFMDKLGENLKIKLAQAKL
Chain of GSTP1 C48 (P09211) (P09211 whole entry): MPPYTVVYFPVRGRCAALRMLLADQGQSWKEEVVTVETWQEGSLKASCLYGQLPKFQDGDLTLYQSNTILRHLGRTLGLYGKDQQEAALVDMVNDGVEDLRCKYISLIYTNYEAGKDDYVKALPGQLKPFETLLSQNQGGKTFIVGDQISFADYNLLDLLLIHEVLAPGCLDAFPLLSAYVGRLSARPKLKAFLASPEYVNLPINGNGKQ

Row | isoTOP-ABPP ratio (reactivity profile), P63244_C182 (GNB2L1 C182 (P63244); 500 μm in-vitro ramos) | isoTOP-ABPP ratio (reactivity profile), Q16763_C118 (UBE2S C118 (Q16763); 500 μm in-vitro ramos) | isoTOP-ABPP ratio (reactivity profile), Q9UPT9_C171 (USP22 C171 (Q9UPT9); 500 μm in-vitro ramos) | isoTOP-ABPP ratio (reactivity profile), O00170_C122 (AIP C122 (O00170); 500 μm in-vitro ramos) | isoTOP-ABPP ratio (reactivity profile), Q9Y3Z3_C522 (SAMHD1 C522 (Q9Y3Z3); 500 μm in-vitro ramos) | isoTOP-ABPP ratio (reactivity profile), P09211_C48 (GSTP1 C48 (P09211); 500 μm in-vitro ramos) | isoTOP-ABPP ratio (reactivity profile), P15374_C95 (UCHL3 C95 (P15374); 500 μm in-vitro ramos) | isoTOP-ABPP reactivity ratio, P63244_C182 (GNB2L1 C182 (P63244)) | isoTOP-ABPP reactivity ratio, Q16763_C118 (UBE2S C118 (Q16763); in-vitro_ramos) | isoTOP-ABPP reactivity ratio, Q16763_C118 (UBE2S C118 (Q16763); in-vitro_ramos_231) | isoTOP-ABPP reactivity ratio, O00170_C122 (AIP C122 (O00170); in-vitro_ramos) | isoTOP-ABPP reactivity ratio, P09211_C48 (GSTP1 C48 (P09211); in-vitro_ramos_231) | isoTOP-ABPP reactivity ratio, P15374_C95 (UCHL3 C95 (P15374); in-vitro_ramos) | isoTOP-ABPP reactivity ratio, P15374_C95 (UCHL3 C95 (P15374); in-vitro_ramos_231) | SMILES | other results
1 | 2.6 | 1.2 | 3.1 | 1.3 | 1.1 | 1.6 | 1.1 |  |  |  |  |  |  |  | CC(Br)C(=O)Nc1cc(C(F)(F)F)cc(C(F)(F)F)c1 (centres unmarked) [compound 24] | isoTOP-ABPP ratio (reactivity profile), O75874_C269 (IDH1 C269 (O75874); 500 μm in-vitro ramos): 0.9
2 |  |  |  |  |  |  |  |  |  |  |  |  |  |  | CC(Cl)C(=O)Nc1cc(C(F)(F)F)cc(C(F)(F)F)c1 (centres unmarked) [compound 25] | isoTOP-ABPP ratio (reactivity profile), P63244_C182 (GNB2L1 C182 (P63244); 500 μm in-vitro ramos_231): 1.2; isoTOP-ABPP ratio (reactivity profile), O75874_C269 (IDH1 C269 (O75874); 500 μm in-vitro ramos_231): 1.0; isoTOP-ABPP ratio (reactivity profile), Q16763_C118 (UBE2S C118 (Q16763); 500 μm in-vitro ramos_231): 1.0; isoTOP-ABPP ratio (reactivity profile), Q9UPT9_C171 (USP22 C171 (Q9UPT9); 500 μm in-vitro ramos_231): 1.1; isoTOP-ABPP ratio (reactivity profile), O75362_C286 (ZNF217 C286 (O75362); 500 μm in-vitro ramos_231): 20.0; isoTOP-ABPP ratio (reactivity profile), P09211_C48 (GSTP1 C48 (P09211); 500 μm in-vitro ramos_231): 1.8; isoTOP-ABPP ratio (reactivity profile), P15374_C95 (UCHL3 C95 (P15374); 500 μm in-vitro ramos_231): 0.8
3 | 1.0 | 0.9 | 1.0 | 0.9 | 0.9 | 0.9 | 0.8 |  |  |  |  |  |  |  | O=C(/C=C/c1ccccc1)Nc1cc(C(F)(F)F)cc(C(F)(F)F)c1 [compound 26] | 
4 | 1.1 | 0.9 | 1.2 | 1.0 | 0.9 | 1.0 | 1.0 |  |  |  |  |  |  |  | CC(C)CCOCCNC(=O)CCl [compound 27] | isoTOP-ABPP ratio (reactivity profile), P63244_C182 (GNB2L1 C182 (P63244); 500 μm in-vitro ramos_231): 1.0 and 0.8; isoTOP-ABPP ratio (reactivity profile), Q16763_C118 (UBE2S C118 (Q16763); 500 μm in-vitro ramos_231): 0.8; isoTOP-ABPP ratio (reactivity profile), O75362_C286 (ZNF217 C286 (O75362); 500 μm in-vitro ramos): 1.0; isoTOP-ABPP ratio (reactivity profile), O00170_C122 (AIP C122 (O00170); 500 μm in-vitro ramos_231): 0.4; isoTOP-ABPP ratio (reactivity profile), Q9Y3Z3_C522 (SAMHD1 C522 (Q9Y3Z3); 500 μm in-vitro ramos_231): 0.8 and 1.0; isoTOP-ABPP ratio (reactivity profile), P09211_C48 (GSTP1 C48 (P09211); 500 μm in-vitro ramos_231): 1.3 and 1.0; isoTOP-ABPP ratio (reactivity profile), P15374_C95 (UCHL3 C95 (P15374); 500 μm in-vitro ramos_231): 0.4
5 |  |  |  |  |  |  |  | 1.3 | 0.8 | 0.9 | 0.6 | 2.0 | 0.7 | 0.9 | C=CC(=O)N(Cc1cccnc1)c1cc(C(F)(F)F)cc(C(F)(F)F)c1 [compound 31] | isoTOP-ABPP reactivity ratio, O75874_C269 (IDH1 C269 (O75874); in-vitro_ramos): 0.7; isoTOP-ABPP reactivity ratio, O75874_C269 (IDH1 C269 (O75874); in-vitro_ramos_231): 0.4; isoTOP-ABPP reactivity ratio, Q9UPT9_C171 (USP22 C171 (Q9UPT9); in-vitro_ramos_231): 2.1; isoTOP-ABPP reactivity ratio, Q9Y3Z3_C522 (SAMHD1 C522 (Q9Y3Z3); in-vitro_ramos_231): 1.5; isoTOP-ABPP reactivity ratio, P09211_C48 (GSTP1 C48 (P09211); in-vitro_ramos): 1.3
6 |  |  |  |  |  |  |  | 1.9 | 1.1 | 1.1 | 1.9 | 1.9 | 1.0 | 1.2 | CC(C)(C)c1cc(NC(=O)CCl)on1 [compound 32] | isoTOP-ABPP reactivity ratio, Q9UPT9_C171 (USP22 C171 (Q9UPT9); in-vitro_ramos): 9.3; isoTOP-ABPP reactivity ratio, O00170_C122 (AIP C122 (O00170); in-vitro_ramos_231): 3.7; isoTOP-ABPP reactivity ratio, Q9Y3Z3_C522 (SAMHD1 C522 (Q9Y3Z3); in-vitro_ramos): 1.8; isoTOP-ABPP reactivity ratio, P09211_C48 (GSTP1 C48 (P09211); in-vitro_ramos): 1.4
7 |  |  |  |  |  |  |  | 1.1 | 1.0 | 1.0 | 1.5 | 1.9 | 12.5 | 2.7 | C=CC(=O)Nc1cc(F)c(N2CCN(C(=O)OC(C)(C)C)CC2)c(F)c1 [compound 38] | isoTOP-ABPP reactivity ratio, O75874_C269 (IDH1 C269 (O75874); in-vitro_ramos_231): 0.7; isoTOP-ABPP reactivity ratio, Q9UPT9_C171 (USP22 C171 (Q9UPT9); in-vitro_ramos_231): 1.4; isoTOP-ABPP reactivity ratio, O75362_C286 (ZNF217 C286 (O75362); in-vitro_ramos): 1.2; isoTOP-ABPP reactivity ratio, O75362_C286 (ZNF217 C286 (O75362); in-vitro_ramos_231): 0.9; isoTOP-ABPP reactivity ratio, O00170_C122 (AIP C122 (O00170); in-vitro_ramos_231): 1.5

— patent US10670605B2, “Cysteine reactive probes and uses thereof” (The Scripps Research Institute, priority 2015, dated 2020)
